The values that follow are results of earlier work, collected in patent publication US11957723B2, “Methods and uses of microbiome compositions, components, or metabolites for treating neurodegenerative diseases” (MarvelBiome, Inc., priority 2021, dated 2024).

The data set has as its system ALS patients.

Turning to `Nc1nc2ccc(OC(F)(F)F)cc2s1` [Riluzole], under “ALS patients in the early stages”, the life span expansion result is reported as “about a three-month life span expansion”. The therapeutic benefit entry (ALS patients in the late stages) is listed as “no therapeutic benefit”.
